Experimental data reported in publication PMC6530361, “Anti-tumor Efficacy Assessment of the Sigma Receptor Pan Modulator RC-106. A Promising Therapeutic Tool for Pancreatic Cancer” (Frontiers in Pharmacology, 2019).

Assays:
Type in all cases: cell-based
Capan-1 [1] = experiment: Western Blot of caspase 3 and 9 activation; details: Capan-1, 12 h, 50 μM
Description: (§1) Western Blot were performed as previously described ([Arienti et al., 2016]). Briefly, Cell proteins were extracted with M-PER (Thermo Fisher Scientific) supplemented with Halt Protease Phosphatase Inhibitor Cocktail (Thermo Fisher Scientific).
(§2) Mini-PROTEANTGX^TM precast gels (4–20% and any kD; BIO-RAD) were run using Mini-PROTEAN Tetra electrophoresis cells and then electroblotted by Trans-Blot Turbo^TM Mini PVDF Transfer Packs (BIORAD). The unoccupied membrane sites were blocked with T-TBS 1X (Tween 0.1%) and 5% non-fat dry milk to prevent non-specific binding of antibodies and probed with specific primary antibodies overnight at 4°C. This was followed by incubation with the respective secondary antibodies. The antibody-antigen complexes were detected with Immun-Star^TM WesternC^TM kit (BIO-RAD).
(§3) The following primary antibodies were used: anti-sigma receptor (S18): sc-22948 (Santa Cruz Biotechnology inc.), anti-TMEM97, anti-caspase-3, and anti-caspase-9. Anti-vinculin (sc-5573) from Santa Cruz Biotechnology and anti-actin from Sigma Aldrich Inc., were used as housekeeping. Quantity One Software was used for analysis.

Capan-2 [2] = experiment: Western Blot of caspase 3 and 9 activation; details: Capan-2, 48 h, 25 μM
Description: as §1, §2, §3

Panc-1 [3] = experiment: Western Blot of caspase 3 and 9 activation; details: Panc-1, 48 h, 25 μM
Description: as §1, §2, §3

Capan-2 [4] = experiment: Real-Time qRT-PCR of ER stress/UPR marker genes; details: Capan-2, RC-106 50 μM, higher than untreated cells
Description: Total cellular RNA was extracted using TRIzol reagent (Life technologies) in accordance with manufacturer’s instruction and quantified using the Nanodrop MD-1000 spectrophotometer system. Reverse transcription reactions were performed in 20 μL of nuclease free water containing 400 ng of total RNA using iScript cDNA Synthesis kit (Bio-Rad Laboratories, Hercules, CA). Real-Time PCR was run using 7500 Fast Real-Time PCR system (Applied Biosystems) and TaqMan assays to detect the expression of SIGMAR1, TMEM97, GRP78/BiP, ATF4, and CHOP genes.
Reactions were carried out in triplicate at a final volume of 20 μL containing 40 ng of cDNA template, TaqMan universal PCR Master Mix (2X), and selected TaqMan assays (20X). Samples were maintained at 50°C for 2 min, then at 95°C for 10 min followed by 40 amplification cycles at 95°C for 15 s, and at 60°C for 30 s.
The amount of mRNA was normalized to the endogenous genes GAPDH and HPRT-1.

[5] = system: proteasome activity of Capan-1; experiment: Proteasome activity assay; details: Capan-1, 24 h, highest concentration used
Description: (§4) Cells were seeded in 6-well plates at density of 250 × 10^3 cells/well. Cells were treated with increasing concentration of RC-106 and after 24 h total protein extracts were obtained: cells were washed 2 times with PBS and lysed with 100 μL of lysis buffer (Hepes 5 mM pH 7.5, NaCl 150 mM, Glycerol 10%, Triton X100 1%, MgCl2 1.5 mM, EGTA 5 mM). Protein concentration of samples was quantified using Bradford method. Proteasome activity was quantified as described below. Proteasome solution was composed by 40 μg of proteins, 10 μL of 10X proteasome buffer (Hepes pH 7.5 250 mM, EDTA pH 8.0 5 mM, NP-40 0.5%, SDS 0.01%) and 10 μL of 10 mM proteasome substrate (N-Succinyl-Leu-Leu-Val-Tyr-7-Amido-4-Methylcoumarin, 7.6 mg/mL; Sigma-Aldrich, United States). 100 μL of proteasome solution was loaded in wells of a black 96-well plate. The plate was then incubated at 37°C for 2 h and the fluorescence was measured in a microplate reader (excitation 380 nm, emission 460 nm; BMG-Labtech, Germany).

[6] = system: proteasome activity of Capan-2; experiment: Proteasome activity assay; details: Capan-2, 24 h
Description: as §4

Capan-1 [7] = experiment: Migration scratch wound healing assay
Description: (§5) Cells were seeded in a 6-well plate and were incubated at 37°C until confluence of 90–100% was reached. Culture medium was then replaced by serum free medium. After 24 h, a scratch was made on cell monolayer using a plastic tip and wells were washed 2 times with PBS to remove detached cells and debris. Culture medium, with or without RC-106, was added to each well. Micrographs of the scratches were taken at 0 h, immediately after the scratch, and at 24, 48, and 72 h. Cell migration area was quantified using IMAGEJ software.

Capan-2 [8] = experiment: Migration scratch wound healing assay; details: Capan-2, 20 and 40 μM, after 48 and 72 h
Description: as §5

Panc-1 [9] = experiment: Migration scratch wound healing assay; details: Panc-1, 60 μM, all considered time points (24, 48, 72 h)
Description: as §5

Panc-1 spheroids = experiment: Analysis of morphological parameters of 3D tumor spheroids; details: 50 μM, 48 h
Description: Spheroids were obtained as previously described ([Zanoni et al., 2016]). Briefly, a rotatory cell culture system RCCS (Synthecon Inc., Houston, TX, United States) was used. The rotary systems were placed inside a humidified 37°C, 5% CO2 incubator and all procedures were performed in sterile conditions. Single cell suspensions of about 1 × 10^6 cells/ml of Panc-1 were placed in the 50 mL rotating chamber at an initial speed of 12 rpm. Speed was increased as cells formed aggregates to avoid sedimentation. The culture medium was changed every 4 days and tumor spheroids with an equivalent diameter ranging from about 500–1300 μm were obtained in around 15 days. After formation, spheroids were transferred into a 96-well low-attachment culture plates (Corning Inc., Corning, NY, United States; one spheroid/well), containing 100 μL of fresh culture medium per well.
The analysis of morphological parameters were performed as previously described ([Piccinini et al., 2017]). Briefly, an inverted Olympus IX51 microscope (Olympus Corporation, Tokyo, Japan), equipped with a Nikon Digital Sight DS-Vi1 camera (CCD vision sensor, square pixels of 4.4 μm side length, 1600 × 1200 pixel resolution, 8-bit gray level; Nikon Instruments, Spa. Florence, Italy) was used to take images and for morphological analyses. […]

Question: `C/C(=C\CN1CCC(Cc2ccccc2)CC1)c1ccc2ccccc2c1` [RC-106, (E)-4-benzyl-1-(3-(naphthalen-2-yl)but-2-en-1-yl)piperidine] was tested. Which “caspases 3 and 9 cleavage” value (Capan-1 [1]) did it give?
Answer: cleaved

Question: And the “caspases 3 and 9 cleavage” value (Capan-2 [2])?
Answer: cleaved

Question: What about the “caspases 3 and 9 cleavage” value (Panc-1 [3]) of the same compound?
Answer: cleaved

Question: And the “increase in expression of CHOP mRNA” value (Capan-2 [4])?
Answer: 70 fold

Question: What about the “concentration at which greatest proteasome inhibition is observed” value [5] of the same compound?
Answer: 100 µM

Question: What about the “lowest concentration used to inhibit proteasome activity” value [6] of the same compound?
Answer: 20 µM

Question: And the cell migration (Capan-1 [7]; Capan-1, 20 μM, after 48 h)?
Answer: significantly reduced

Question: And the cell migration (Capan-1 [7]; Capan-1, 40 and 60 μM, after 24 h)?
Answer: reduced cell migration

Question: And the cell migration (Capan-2 [8])?
Answer: significatively reduceded

Question: And the cell migration (Panc-1 [9])?
Answer: significatively reduced

Question: And the “3D morphological parameters of spheroids” value (Panc-1 spheroids)?
Answer: complete disaggregation of spheroid organization and cytoarchitecture
